Reference: PubChem BioAssay AID1963958 (Molecular Pharmacology Branch, DTP, NCI, 2024)
pIC50: −log10 of the molar value. Blank lines part the entries; values can stand above or below the compound they belong to.

Test system: MDA-MB-231 multicell spheroids, viability
Assay: Anticancer human tumor MDA-MB-231 cell line growth inhibition [PI3K];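 note: spheroids exposed to agents for seven days before reading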;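 for viability, T/C: percent of vehicle control luminescence with DMSO treated spheroids as 100%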
Conditions: for viability, T/C: stronger effect = lower value
Source text: Combinatorial screen of targeted agents with the PI3K inhibitors inavolisib, alpelisib, duvelisib, and copanlisib in multi-cell type tumor spheroids
A high-throughput screen of multi-cell type tumor spheroids was designed to identify active combinations of targeted small molecules and PI3K pathway inhibitors. Complex spheroids include a stromal component modeled by human endothelial cells (HUVEC) and fibroblasts modeled by human mesenchymal stem cells (MSCs). The concentration ranges selected for each drug and investigational agent were based upon clinically achievable concentrations if the clinical Cmax of the agent was known.
Compounds. The drugs and investigational agents: inavolisib (NSC800729), alpelisib (NSC765974), duvelisib (NSC772469), copanlisib (NSC816437), ipatasertib (NSC767898), afuresertib (NSC778305), talazoparib (NSC767125), sapanisertib (NSC764658), selumetinib (NSC741078), tovorafenib (DAY101, NSC766906), vemurafenib (NSC761431), ravoxertinib (NSC781343), sotorasib (NSC818433), MRTX1133 (NSC 836407), abemaciclib (NSC 768073), palbociclib (NSC758247), venetoclax (NSC 766270), SY5609 (NSC837396), enzalutamide (NSC755605), and darolutamide (NSC825331), were obtained from the National Cancer Institute (NCI) Developmental Therapeutics Program Chemical Repository. The FDA-approved anticancer drug set is available from the NCI Developmental Therapeutics Program. […] The stock solutions were prepared in dimethyl sulfoxide (DMSO, Sigma-Aldrich, St. Louis, MO, cat. D2650) at 800-fold the tested concentration and stored at -70 degrees C prior to their use. All drugs and investigational agents were tested over a range starting from a high concentration at or near the clinical Cmax and decreasing in half-log increments. If the clinical Cmax for an agent had not been determined, the highest concentration tested was 10 microM.
Cell Culture. All cells were maintained in an incubator at 37 degrees C and 5% CO2 with 95% humidity. The PDC lines were cultured according to standard operating procedures established by the NCI PDMR (https://pdmr.cancer.gov/sops/default.htm). All PDCs were thawed and cultured in Matrigel-coated flasks prepared with a working solution of 1X Ham's F-12 nutrient mix, without supplementation (Invitrogen, Waltham, MA, cat. 11765054), 100 U/mL penicillin-streptomycin (Invitrogen, cat. 15140122), and 2.5% Matrigel (Corning Inc., Corning, NY, cat. 354248) for the first three passages. The 354836-022-R-J1-PDC, 475296-252-R-J1-PDC, and 997726-040-R-J2-PDC lines were cultured in 6A media, which includes advanced DMEM/F-12 (Thermo Fisher Scientific, cat. 12634028), 10 mM HEPES (Thermo Fisher Scientific, cat. 15630080), 1X GlutaMAX supplement (Thermo Fisher Scientific, cat. 35050061), 0.1 mg/mL primocin (InvivoGen, San Diego, CA, cat. ant-pm-2), 10% defined fetal bovine serum, heat inactivated (HyClone Laboratories Inc., Logan, UT, cat. SH30070.03HI), 50% L-WRN conditioned media (ATCC, cat. CRL-3276), 1.25 mM N-Acetyl-L-cysteine (Sigma-Aldrich, cat. A9165), 10 mM nicotinamide (Sigma-Aldrich, cat. N0636), 1X B-27 supplement (Thermo Fisher Scientific, cat. 17504044), 1X N-2 supplement (Thermo Fisher Scientific, cat. 17502048), and 10 microM Y-27632 dihydrochloride (Tocris Bioscience, Bristol, United Kingdom, cat. 1254). The 624824-186-R-J2-PDC line was cultured in 6C/Colon 1B media, which includes all 6A media components plus 50 ng/mL human EGF recombinant protein (Thermo Fisher Scientific, cat. PHG0311). […]

[1] = curve of first compound, second compound 0.00316 µM
[2] = curve of first compound, second compound 0.01 µM
[3] = curve of first compound, second compound 0.0316 µM
[4] = curve of first compound, second compound 0.1 µM
[5] = curve of first compound, second compound 0.316 µM
[6] = curve of first compound, second compound 1 µM
[7] = second compound 0.00316 µM, first compound 0.0316 µM
[8] = second compound 0.00316 µM, first compound 0.1 µM
[9] = second compound 0.00316 µM, first compound 0.316 µM
[10] = second compound 0.00316 µM, first compound 1 µM
[11] = second compound 0.00316 µM, first compound 3.16 µM
[12] = second compound 0.00316 µM, first compound 10 µM
[13] = second compound 0.01 µM, first compound 0.0316 µM
[14] = second compound 0.01 µM, first compound 0.1 µM
[15] = second compound 0.01 µM, first compound 0.316 µM
[16] = second compound 0.01 µM, first compound 1 µM
[17] = second compound 0.01 µM, first compound 3.16 µM
[18] = second compound 0.01 µM, first compound 10 µM
[19] = second compound 0.0316 µM, first compound 0.0316 µM
[20] = second compound 0.0316 µM, first compound 0.1 µM
[21] = second compound 0.0316 µM, first compound 0.316 µM
[22] = second compound 0.0316 µM, first compound 1 µM
[23] = second compound 0.0316 µM, first compound 3.16 µM
[24] = second compound 0.0316 µM, first compound 10 µM
[25] = second compound 0.1 µM, first compound 0.0316 µM
[26] = second compound 0.1 µM, first compound 0.1 µM
[27] = second compound 0.1 µM, first compound 0.316 µM
[28] = second compound 0.1 µM, first compound 1 µM
[29] = second compound 0.1 µM, first compound 3.16 µM
[30] = second compound 0.1 µM, first compound 10 µM
[31] = second compound 0.316 µM, first compound 0.0316 µM
[32] = second compound 0.316 µM, first compound 0.1 µM
[33] = second compound 0.316 µM, first compound 0.316 µM
[34] = second compound 0.316 µM, first compound 1 µM
[35] = second compound 0.316 µM, first compound 3.16 µM
[36] = second compound 0.316 µM, first compound 10 µM
[37] = second compound 1 µM, first compound 0.0316 µM
[38] = second compound 1 µM, first compound 0.1 µM
[39] = second compound 1 µM, first compound 0.316 µM
[40] = second compound 1 µM, first compound 1 µM
[41] = second compound 1 µM, first compound 3.16 µM
[42] = second compound 1 µM, first compound 10 µM

pIC50 [1]: > 7.50
pIC50 [2]: > 7.50
pIC50 [3]: > 7.50
pIC50 [4]: > 7.50
pIC50 [5]: > 7.50
pIC50 [6]: > 7.50
Structure (SMILES): CC1(C)CCC(Nc2ncc(C(F)(F)F)c(-c3c[nH]c4c(P(C)(C)=O)c(C#N)ccc34)n2)CN1 (stereo not given) + CC(Nc1ccc2c(c1)OCCn1cc(N3C(=O)OCC3C(F)F)nc1-2)C(N)=O
viability, T/C [7]: 47.2%
viability, T/C [8]: 47.7%
viability, T/C [9]: 42.2%
viability, T/C [10]: 48.2%
viability, T/C [11]: 47.4%
viability, T/C [12]: 4.16%
viability, T/C [13]: 48.4%
viability, T/C [14]: 44.9%
viability, T/C [15]: 44.2%
viability, T/C [16]: 46.7%
viability, T/C [17]: 47.5%
viability, T/C [18]: 3.26%
viability, T/C [19]: 45.1%
viability, T/C [20]: 42.1%
viability, T/C [21]: 43.6%
viability, T/C [22]: 45.2%
viability, T/C [23]: 42.4%
viability, T/C [24]: 3.28%
viability, T/C [25]: 41.9%
viability, T/C [26]: 39.6%
viability, T/C [27]: 41.1%
viability, T/C [28]: 37.8%
viability, T/C [29]: 36.2%
viability, T/C [30]: 2.99%
viability, T/C [31]: 39.8%
viability, T/C [32]: 38.9%
viability, T/C [33]: 36.1%
viability, T/C [34]: 37.4%
viability, T/C [35]: 34.8%
viability, T/C [36]: 2.9%
viability, T/C [37]: 37.8%
viability, T/C [38]: 36%
viability, T/C [39]: 33.4%
viability, T/C [40]: 34.6%
viability, T/C [41]: 34.9%
viability, T/C [42]: 2.74%

pIC50 [1]: 7.33
pIC50 [2]: 7.71
pIC50 [3]: 8.27
pIC50 [4]: > 9.50
pIC50 [5]: > 9.50
pIC50 [6]: > 9.50
Structure (SMILES): CC(C)n1nc(-c2ccc3oc(N)nc3c2)c2c(N)ncnc21 + COc1c(OCCCN2CCOCC2)ccc2c3n(c(=NC(=O)c4cnc(N)nc4)nc12)CCN3
viability, T/C (second compound 0.00316 µM, first compound 0.000316 µM): 98.6%
viability, T/C (second compound 0.00316 µM, first compound 0.001 µM): 93.6%
viability, T/C (second compound 0.00316 µM, first compound 0.00316 µM): 83.9%
viability, T/C (second compound 0.00316 µM, first compound 0.01 µM): 76.1%
viability, T/C [7]: 55.6%
viability, T/C [8]: 36.9%
viability, T/C (second compound 0.01 µM, first compound 0.000316 µM): 78.3%
viability, T/C (second compound 0.01 µM, first compound 0.001 µM): 78.5%
viability, T/C (second compound 0.01 µM, first compound 0.00316 µM): 68.8%
viability, T/C (second compound 0.01 µM, first compound 0.01 µM): 58.3%
viability, T/C [13]: 44.3%
viability, T/C [14]: 29.1%
viability, T/C (second compound 0.0316 µM, first compound 0.000316 µM): 57.7%
viability, T/C (second compound 0.0316 µM, first compound 0.001 µM): 59.3%
viability, T/C (second compound 0.0316 µM, first compound 0.00316 µM): 54.4%
viability, T/C (second compound 0.0316 µM, first compound 0.01 µM): 44.2%
viability, T/C [19]: 32.2%
viability, T/C [20]: 21.4%
viability, T/C (second compound 0.1 µM, first compound 0.000316 µM): 47%
viability, T/C (second compound 0.1 µM, first compound 0.001 µM): 45.8%
viability, T/C (second compound 0.1 µM, first compound 0.00316 µM): 40.1%
viability, T/C (second compound 0.1 µM, first compound 0.01 µM): 34.7%
viability, T/C [25]: 26.6%
viability, T/C [26]: 19.8%
viability, T/C (second compound 0.316 µM, first compound 0.000316 µM): 34.2%
viability, T/C (second compound 0.316 µM, first compound 0.001 µM): 31.5%
viability, T/C (second compound 0.316 µM, first compound 0.00316 µM): 28.9%
viability, T/C (second compound 0.316 µM, first compound 0.01 µM): 25.4%
viability, T/C [31]: 21.9%
viability, T/C [32]: 18.5%
viability, T/C (second compound 1 µM, first compound 0.000316 µM): 26%
viability, T/C (second compound 1 µM, first compound 0.001 µM): 23.9%
viability, T/C (second compound 1 µM, first compound 0.00316 µM): 23.8%
viability, T/C (second compound 1 µM, first compound 0.01 µM): 23%
viability, T/C [37]: 24.5%
viability, T/C [38]: 22.5%

pIC50 (curve of compound): < 5.00
Structure (SMILES): C[C@@H](NC(=O)c1ncnc(N)c1Cl)c1ncc(C(=O)Nc2cc(C(F)(F)F)c(Cl)cn2)s1
viability, T/C (compound 0.0316 µM): 139% [middle of 4 runs]
viability, T/C (compound 3.16 µM): 77.3% [middle of 4 runs]
viability, T/C (compound 10 µM): 64.8% [middle of 4 runs]

pIC50 [1]: 5.16
pIC50 [2]: 5.15
pIC50 [3]: 5.19
pIC50 [4]: 5.26
pIC50 [5]: 5.33
pIC50 [6]: 5.36
Structure (SMILES): CC1(C)CCC(CN2CCN(c3ccc(C(=O)NS(=O)(=O)c4ccc(NCC5CCOCC5)c([N+](=O)[O-])c4)c(Oc4cnc5[nH]ccc5c4)c3)CC2)=C(c2ccc(Cl)cc2)C1 + CC(Nc1ccc2c(c1)OCCn1cc(N3C(=O)OCC3C(F)F)nc1-2)C(N)=O
viability, T/C [7]: 95.8%
viability, T/C [8]: 92.2%
viability, T/C [9]: 104%
viability, T/C [10]: 111%
viability, T/C [11]: 105%
viability, T/C [12]: 25.5%
viability, T/C [13]: 94.1%
viability, T/C [14]: 99.1%
viability, T/C [15]: 94.9%
viability, T/C [16]: 96.4%
viability, T/C [17]: 92.2%
viability, T/C [18]: 31.8%
viability, T/C [19]: 83.8%
viability, T/C [20]: 77.5%
viability, T/C [21]: 79.3%
viability, T/C [22]: 85.8%
viability, T/C [23]: 86.6%
viability, T/C [24]: 29.5%
viability, T/C [25]: 77.2%
viability, T/C [26]: 69.1%
viability, T/C [27]: 71.4%
viability, T/C [28]: 69.6%
viability, T/C [29]: 69.8%
viability, T/C [30]: 28.2%
viability, T/C [31]: 64%
viability, T/C [32]: 64.6%
viability, T/C [33]: 61.1%
viability, T/C [34]: 66.4%
viability, T/C [35]: 70.6%
viability, T/C [36]: 21.4%
viability, T/C [37]: 64.9%
viability, T/C [38]: 60.2%
viability, T/C [39]: 60.8%
viability, T/C [40]: 60.2%
viability, T/C [41]: 65.5%
viability, T/C [42]: 18.3%
